{
  "source": "patent US8227490B2",
  "about": "“Use of 1-hydroxy-2-pyridones for the treatment of seborrheic dermatitis” (Medicis Pharmaceutical Corporation, priority 1996, dated 2012)",
  "origin": "cited, not measured here",
  "system": "gram-positive bacteria",
  "settings": "Kinsman et al., J. Med. Microbiol. (1983)",
  "data": [
    {"smiles": "CC(=O)N1CCN(c2ccc(OCC3COC(Cn4ccnc4)(c4ccc(Cl)cc4Cl)O3)cc2)CC1", "note": "(stereo not shown) [ketoconazole]", "values": [
      {"measurement": "activity in vitro against gram-positive bacteria", "value": "inactive"}
    ]}
  ]
}
